Read-outs that look alike come from different tables or passages of the source.
How the values were obtained:
[1] = cited from earlier work
[2] = system: fish and aquatic invertebrates; details: water bodies; cited from earlier work
[3] = system: SU-resistant Stellaria media biotypes; assay: Resistance factors of SU-resistant Stellaria media biotypes to herbicides (ratio of ED50 values); assay type: in vivo
Description: The sensitivity to a specific herbicide of each biotype can be tested by determining the amount of herbicide needed to reduce the biomass to 50% of the non-treated plants of the same biotype. When comparing sensitivity among biotypes the “resistance factor” can be used to characterise the sensitivity.
The “resistance factor” is used to characterize the extent of susceptibility and resistance of a species to a herbicide. Resistance factors are typically represented as a ration of ED50 values for different biotypes.
The resistance factor is the ratio of the ED50 value of the resistant and susceptible biotypes.
Results from a study with 6 SU-resistant (Sulfonylurea-resistant) Stellaria media biotypes are included.

[4] = system: Stellaria media SU-susceptible and SU-resistant biotype; assay: Biomarker pattern (HPPC) in extracts of Stellaria media exposed to iodosulfuron; assay type: in vivo; details: for number of type B biomarkers detected in extracts of susceptible plants: 50% of recommended field dose
Description: A SU-susceptible and SU-resistant biotype of Stellaria media was cultivated outdoors in 2-litre pots. At the 4-5 leaf stage the plants were exposed to iodosulfuron (IOD) applied in mixture with a methylated vegetable oil (Renol). Iodosulfuron was applied at 50% of the recommended field dose. The plants were harvested 4, 7 and 14 days after exposure. Immediately after harvest the plants were frozen and freeze-dried.
Freeze-dried plant material (50 mg per ml of 75% ethanol) was extracted in ultrasonic bath with ice for two hours. The extracts were centrifuged before analysis.
A biomarker pattern was detected as phytochemical changes in plant extracts. A comparison of the extracts of an un-treated susceptible (Biotype 1) and an untreated resistant (Biotype 2) of Stellaria media is shown as biomarkers type A. See further description in Example 3.
A comparison of extracts of the same biotypes exposed to iodosulfuron is shown as biomarkers type B. See further description in Example 3.
High Performance Planar Chromatography (HPPC)-systems were used to detect the two types of biomarkers.

[5] = system: Papaver rhoeas sensitive and target resistant biotypes; assay: TLC analysis of Papaver rhoeas extracts, unexposed and exposed to Hussar OD; assay type: in vivo
Description: S0=ID 150 Biotype 4 sensitive control S1=ID 150 Biotype 4 sensitive exposed to 1N Hussar OD+0.5 I/ha Renol R0=ID 397 Biotype 5 Target resistant control R1=ID 397 Biotype 5 Target resistant exposed to 1N Hussar OD+0.5 I/ha Renol R10=ID 397 Biotype 5 Target resistant exposed to 10N Hussar OD+0.5 I/ha Renol R20=ID 248 Biotype 6 Target resistant exposed control R21=ID 248 Biotype 6 Target resistant exposed to 1N Hussar OD+0.5 I/ha Renol R210=ID 248 Biotype 6 Target resistant exposed to 10N Hussar OD+0.5 I/ha Renol R30=ID 406 Biotype 12 Target resistant exposed control R31=ID 406 Biotype 12 Target resistant exposed to 1N Hussar OD+0.5 I/ha Renol R310=ID 406 Biotype 12 Target resistant exposed to 10N Hussar OD+0.5 I/ha Renol
100 mg freeze-dried plant material (Papaver rhoeas (Papaveraceae) in 4.00 ml 80% Ethanol extracted for 20 min. in ultrasonic bath (Realisation Etudes Ultra Son (REUS), 16, allée des Cystes, 06390 Contes, France). The extract was filtered through GELMAN GHP Agrodisc 13 0.45 μm.
The extracts (20 μl) were applicated on Silicagel 60 Merck 1.05721 (10×20 cm) or (10 μl) Cellulose aluminium Merck 1.05552.0001 together with the reference 1 0/00 papaverin in ethanol using a TLC Automatic TLC Sampler III.
TLC 5) Plate: Cellulose; Solvent: 2% Acetic acid in Water. The results can be seen in FIG. 7.
Detection: UV 366 nm after derivatisation with NEU+PEG is seen in FIG. 7b.

[6] = system: Stellaria media sensitive and target resistant biotypes; assay: TLC analysis of Stellaria media extracts, unexposed and exposed to Hussar OD; assay type: in vivo
Description: S0=ID 1 Biotype 1 sensitive control S1=ID 1 Biotype 1 sensitive exposed to 1N Hussar OD+0.5 I/ha Renol R10=ID 9 Biotype 2 Target resistant control R11=ID 9 Biotype 2 Target resistant exposed to 1N Hussar OD+0.5 I/ha Renol R110=ID 9 Biotype 2 Target resistant exposed to 10N Hussar OD+0.5 I/ha Renol R20=ID 102 Biotype 3 Target resistant exposed control R21=ID 102 Biotype 3 Target resistant exposed to 1N Hussar OD+0.5 I/ha Renol R210=ID 102 Biotype 3 Target resistant exposed to 10N Hussar OD+0.5 I/ha Renol
Et=100 mg freeze-dried plant material in 4.00 ml 80% Ethanol extracted for 20 min. in ultrasonic bath (Réalisation Etudes Ultra Son (REUS), 16, allée des Cystes, 06390 Contes, France).
Aq=50 mg freeze-dried plant material in 4.00 ml 80% Ethanol extracted for 20 min. in ultrasonic bath (Réalisation Etudes Ultra Son (REUS), 16, allée des Cystes, 06390 Contes, France)+200 it EtOH after filtration.
The extracts (10 μl) were applicated on Silicagel 60 Merck 1.05721 (10×20 cm) or (5 μl) Cellulose aluminium Merck 1.05552.0001 with together with the reference T=1 0/00× in ethanol using a TLC Automatic TLC Sampler III.

O=C(O)CNCP(=O)(O)O [Glyphosate]
half-life ([1]; degraded by rapid microbial action): 3-5 weeks

CCC(CC)Nc1c([N+](=O)[O-])cc(C)c(C)c1[N+](=O)[O-] [Pendimethalin]
toxicity to fish [2]: toxic

COc1ncc(F)c2nc(S(=O)(=O)Nc3c(F)cccc3F)nn12 [florasulam]
cross-resistance of SU-resistant biotypes [3]: could not be confirmed

COc1nc(C)nc(NC(=O)NS(=O)(=O)c2cc(I)ccc2C(=O)O)n1 [iodosulfuron]
number of type B biomarkers detected in extracts of susceptible plants ([4]; 7 and 14 days after exposure): 7
number of type B biomarkers detected in extracts of susceptible plants ([4]; 4 days after exposure): Five
unique biomarker pattern in extracts ([4]; SU-resistant Stellaria media biotype): absent
unique biomarker pattern in extracts ([4]; susceptible Stellaria media biotype, 4, 7 and 14 days after exposure): detected
new flavonoid in plant extract (TLC) ([5]; Papaver rhoeas biotypes of the target resistant plants): not present
new flavonoid in plant extract (TLC) ([5]; Papaver rhoeas sensitive plant exposed): present
new flavonoid in plant extract (TLC) ([6]; Stellaria media sensitive plant exposed): present
new flavonoid in plant extract (TLC) ([6]; Stellaria media target resistant biotypes, only at very high exposure concentrations (10N)): not present

N#Cc1cc(Br)c(O)c(Br)c1 [Bromoxynil]
half-life ([1]; most soil types): two

Reference: patent US20100150842A1, “Method and Kit for Detecting Resistance in Living Organisms” (priority 2007, published 2010)
